Some test systems named below: M19-MEL melanoma; HOP-18 NSCLC; LXFL 529 NSCLC; DMS 114 small cell lung; KM20L2 colon; DMS 273 small cell lung; XF 498 CNS; RXF-631 renal; MDA-N.
Experiment in all cases: NCI tumour cell line growth inhibition, 48 h

“And” between values parts separate entries of the source, which are not always exact repeats. Identical values can stand only once.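 Cells were grown in 96-well plates and exposed to each compound for 48 hours at five concentrations; endpoints were interpolated linearly between bracketing concentrations, or set to the highest concentration if not reached. Abbreviation: GI50, concentration required for 50% inhibition of growth. TGI denotes the concentration required for complete inhibition of growth.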 Bounds are passed on as bounds.

`CCOC(=O)/C(O)=C(/c1n[nH]c(=O)c2ccccc12)[N+](=O)[O-]`: the TGI in the test on M19-MEL melanoma, in the test on HOP-18 NSCLC, with LXFL 529 NSCLC, with DMS 114 small cell lung, in the test with KM20L2 colon and with DMS 273 small cell lung was more than 100 µM in each case.
For the compound `COC(=O)C1=C(O)c2cc(OC)c(OC)c(OC)c2[C@H](c2cc(OC)c(OC)c(OC)c2)C1C(=O)OC` (some centres undefined), the TGI is more than 100 µM in the test on LXFL 529 NSCLC; more than 100 µM with XF 498 CNS; 87.7 µM with DMS 114 small cell lung; 97.2 µM in the test with RXF-631 renal; 37.5 µM with KM20L2 colon; 51.4 µM with DMS 273 small cell lung.
Turning to `O=S(=O)(O)O.[NH-]C1CCCCC1[NH-].[Pt+2]` (centres undefined), the GI50 is more than 100000 nM in the test with M19-MEL melanoma, more than 100 µM in the test on LXFL 529 NSCLC and 35.8 µM in the test on KM20L2 colon. Further, the TGI with M19-MEL melanoma, in the test with LXFL 529 NSCLC and with KM20L2 colon was more than 100 µM throughout.
Consider `O=c1cccccc1NCCOCCNc1cccccc1=O`, for which the TGI in the test with M19-MEL melanoma, in the test on HOP-18 NSCLC, in the test on LXFL 529 NSCLC, with DMS 114 small cell lung, in the test with KM20L2 colon and in the test on DMS 273 small cell lung was more than 100 µM in each case.
For `Cc1[nH]c2ccccc2c1C1Cc2ccccc2N1C(=O)/C=C/C=C/c1ccccc1` (centres undefined), the TGI in the test with M19-MEL melanoma, with LXFL 529 NSCLC, in the test on DMS 114 small cell lung, in the test on KM20L2 colon and in the test with DMS 273 small cell lung was more than 100 µM each time.
On to `O=S(=O)(/C=C/c1ccc(Cl)cc1Cl)Cc1ccccc1CS(=O)(=O)/C=C/c1ccc(Cl)cc1Cl`, for which the TGI in the test on M19-MEL melanoma, with LXFL 529 NSCLC, in the test on XF 498 CNS, in the test on DMS 114 small cell lung, in the test on KM20L2 colon and in the test on DMS 273 small cell lung was more than 100 µM each time.
In the case of `CCOC(C)C(/C=N/NC(N)=S)=NNC(N)=S` (centres undefined), the TGI with M19-MEL melanoma and in the test on LXFL 529 NSCLC was more than 100 µM in each case.
Take `Cc1cc(O)cc2oc(=O)c3c(O)cc(O)cc3c12`: the TGI with M19-MEL melanoma was more than 100 µM; in the test on HOP-18 NSCLC, more than 100 µM; in the test on LXFL 529 NSCLC it was more than 100 µM; with XF 498 CNS, 59.3 µM; with DMS 114 small cell lung it was 86.1 µM; in the test with KM20L2 colon, more than 100 µM. In addition, the TGI in the test on DMS 273 small cell lung worked out at 58.2 µM.
As for `CS(=O)(=O)NNS(=O)(=O)c1cccc([N+](=O)[O-])c1`, the TGI with M19-MEL melanoma, in the test on LXFL 529 NSCLC, in the test on XF 498 CNS, in the test with DMS 114 small cell lung, in the test on RXF-631 renal and with KM20L2 colon was more than 100 µM in each case. Besides, in the test with DMS 273 small cell lung, the TGI is more than 100 µM.
As to `COC(=O)C1=C2CCC(=O)[C@@]2(C)C(OC(C)=O)C=CC1` (some centres undefined), the TGI is more than 100 µM with M19-MEL melanoma; more than 100 µM in the test with LXFL 529 NSCLC; 92.9 µM in the test with XF 498 CNS; more than 100 µM in the test with DMS 114 small cell lung; 54 µM in the test on RXF-631 renal; more than 100 µM in the test with KM20L2 colon. Besides, the TGI in the test on DMS 273 small cell lung is more than 100 µM.
As for `CCOC12OC3=C(CC1CC1=C(CCC1=O)O2)C(=O)CC3` (centres undefined), the TGI in the test on M19-MEL melanoma, with HOP-18 NSCLC, with LXFL 529 NSCLC, in the test on DMS 114 small cell lung, in the test with RXF-631 renal and with KM20L2 colon was more than 100 µM in each case. The compound further returned a TGI in the test on DMS 273 small cell lung of more than 100 µM.
Regarding `COc1ccc(C(=O)C(c2ccc(OC)cc2)C2(O)C(=O)Nc3ccccc32)cc1` (centres undefined), the TGI in the test on M19-MEL melanoma, with LXFL 529 NSCLC, in the test on XF 498 CNS, in the test with RXF-631 renal, in the test with KM20L2 colon and in the test on DMS 273 small cell lung was more than 100 µM in each case.
Consider `CN(C)CCNC(=O)c1cc2ccccc2c2nc3ccccc3nc12`, for which the TGI was 2.67 µM with M19-MEL melanoma; more than 22.9 µM with HOP-18 NSCLC; more than 22.3 µM in the test on LXFL 529 NSCLC; 2.43 µM with DMS 114 small cell lung; 2.93 µM in the test on KM20L2 colon; more than 100 µM with DMS 273 small cell lung.
Regarding `CC(=O)[CH-]C(=O)c1ccccc1.CC(=O)[CH-]C(=O)c1ccccc1.CC[O-].CC[O-].[Zr+4]`, the GI50 in the test with HOP-18 NSCLC, in the test on LXFL 529 NSCLC and with KM20L2 colon was more than 100 µM throughout. Also, the TGI in the test with HOP-18 NSCLC, in the test with LXFL 529 NSCLC and in the test on KM20L2 colon was more than 100 µM each time.
Consider `CCCCCCCCCCCCCC(=O)O[C@H]1CC[C@H](NC(=O)[C@H](OC)[C@H](O)[C@@H](O)[C@H](O)/C=C/C(C)C)C(=O)NC1`, for which the GI50 is 24.5 nM in the test on M19-MEL melanoma; more than 51.2 µM in the test on HOP-18 NSCLC; 0.00512 µM in the test on LXFL 529 NSCLC; less than 1 nM with DMS 114 small cell lung; 16.5 nM with MDA-N; 0.0453 µM with KM20L2 colon. In addition, the GI50 with DMS 273 small cell lung was less than 1 nM. The TGI was 8.23 µM with M19-MEL melanoma; more than 51.2 µM with HOP-18 NSCLC; 7.26 µM with LXFL 529 NSCLC; 0.305 µM in the test on XF 498 CNS; 44.7 µM and 12.1 µM in the test on MDA-N; 8.34 µM in the test with KM20L2 colon. Besides, in the test on DMS 273 small cell lung, the TGI came out at 0.0303 µM.
`COc1cc(O)c2c(O)c3c(c4c2c1[C@]1(C4)C(C)=CCCC1(C)C)[C@H](O)[C@@]1(O)CC(=O)C(C(N)=O)=C(O)[C@@]1(O)C3=O` displayed a TGI with MDA-N of 1.72 µM.
Consider `O=C(O)C(CP(=O)(O)O)=C(Cl)Cl`, for which the TGI with M19-MEL melanoma, in the test with HOP-18 NSCLC, with LXFL 529 NSCLC, in the test with XF 498 CNS, in the test on KM20L2 colon and with DMS 273 small cell lung was more than 100 µM in each case.

The record behind these values is PubChem BioAssay (NCI).
